Consider four molecules from patent US20230128889A1, “REL/RELA/SPOT SMALL MOLECULES MODULATORS AND SCREENING METHODS” (priority 2020, published 2023).

Substitutions are numbered along the chain they refer to. Numbers in names are those of the source. Like-named read-outs stand apart in the source and are kept apart here.

In one series the target is RelTt^NTD (Thermus thermophilus, UniProt Q5SHL3). Description: Isothermal Titration Calorimetry (ITC), titration into RelTt^NTD. Type of series: binding, T. thermophilus. How it is done: (§1) To directly address the sequential binding hypothesis, we monitored the binding of these nucleotides using Isothermal Titration Calorimetry (ITC). […] However, once the RelTt^NTD-GDP complex is formed, APCPP binds with an affinity of around 50 μM (FIG. 9h and Table 6). The incorporation of both GDP and APCPP is entropically driven (FIG. 11b and Table 6). In the case of the binding of GDP to the SYN-domain, the release of ordered water molecules from the GDP binding cleft is accompanied by the movement of α6-α7 that partially occludes the HD active center and an increase in the enzyme flexibility as observed in the crystal structure. All these structural changes are consistent with entropically driven binding events. […] In addition, it creates an ‘entropy reservoir’ that drives the binding of APCPP with the release of water molecules from the now exposed binding cleft. This supports the notion that GDP must ‘open’ the enzyme to reveal the ATP binding site, as predicted from the analysis of the crystallographic data.

A further series addresses RelTt^NTD-GDP complex (Thermus thermophilus, UniProt Q5SHL3). Description: ITC, titration into RelTt^NTD-GDP complex. Format: binding, T. thermophilus. The protocol:
as §1
In general terms: In ITC the heat of successive injections is recorded.

Another series has as its target RelTt^NTD-APCPP complex (Thermus thermophilus, UniProt Q5SHL3). The series can be described thus: ITC, titration into RelTt^NTD-APCPP complex. Type of series: binding, T. thermophilus. The protocol:
as §1

A further series has as its system full-length RelTt. The series can be described thus: ppGpp synthesis (synthase) activity of full-length RelTt and variants, 3H-labeled GDP. Type of series: biochemical, T. thermophilus. Details: Synthase activity, Substrate: GDP + ATP, RelTt + IC / Synthase activity, Substrate: GDP + ATP, RelTt + IC + tRNA^Val: unit not given here. Particulars: 40° C.; for Synthase activity, Substrate: GDP + ATP, RelTt + IC + tRNA^Val: with 70S IC and deacylated tRNA^Val; for Synthase activity, Substrate: GDP + ATP, RelTt + IC: with T. thermophilus 70S IC. The protocol: FIG. 1. Biochemical characterization of full-length RelTt. (a) Hydrolysis activity of 100 nM full-length RelTt was assayed in the presence of 0.5 mM 3H-labeled ppGpp substrate either at 4° C. or 40° C. Synthetic activity of 30 nM full-length RelTt was assayed at 40° C. in the presence of either 1 mM ATP (b) or 1 mM APPNP (c), as well 0.3 mM of 3H-labeled GDP and 0.1 mM ppGpp. As indicated on the figure, the reactions were supplemented with 120 nM T. thermophilus 70S IC(MV) added either alone or in combination with 2 μM deacylated E. coli tRNAVal. All experiments were performed in HEPES:Polymix buffer, pH 7.5, 5 mM Mg^2+, either in the presence (a) or absence (b and c) of 0.5 mM Mn^2+. Error bars represent Standard deviations of the turnover estimates by linear regression.

Sequence of RelTt^NTD-APCPP complex (Q5SHL3 entry or part of it, one chain of several): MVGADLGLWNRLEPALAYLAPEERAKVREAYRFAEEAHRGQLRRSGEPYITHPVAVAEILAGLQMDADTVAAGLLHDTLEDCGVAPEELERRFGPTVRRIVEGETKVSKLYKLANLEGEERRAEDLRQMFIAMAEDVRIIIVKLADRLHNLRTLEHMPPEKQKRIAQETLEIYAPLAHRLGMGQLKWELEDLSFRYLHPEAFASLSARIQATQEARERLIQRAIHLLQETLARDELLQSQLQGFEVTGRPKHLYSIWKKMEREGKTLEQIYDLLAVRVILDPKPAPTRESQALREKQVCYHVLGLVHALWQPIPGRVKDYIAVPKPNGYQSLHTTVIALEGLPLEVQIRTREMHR
Sequence of RelTt^NTD (Q5SHL3 entry or part of it): as the sequence (Q5SHL3 entry or part of it, one chain of several) above
Sequence of RelTt^NTD-GDP complex (Q5SHL3 entry or part of it, one chain of several): as above

A word on the Kd: it is the free concentration of one partner at which half of the binding sites on the other are occupied at equilibrium, for simple one-to-one binding. Consider `Nc1ncnc2c1ncn2[C@@H]1O[C@H](COP(=O)(O)CP(=O)(O)OP(=O)(O)O)[C@@H](O)[C@H]1O` [APCPP], for which the dissociation constant (Kd) entry on RelTt^NTD is listed as “does not bind”. At RelTt^NTD-GDP complex, binding was put at a Kd of 50.4 µM, the ΔG is -5.67 ± 0.07 kcal/mol, the ΔH was found to be 1.8 ± 1 kcal/mol and the “−TΔS” value was -7.5 ± 1 kcal/mol.

In the case of `Nc1nc2c(ncn2[C@@H]2O[C@H](COP(=O)(O)OP(=O)(O)O)[C@@H](O)[C@H]2O)c(=O)[nH]1` [GDP], at RelTt^NTD-APCPP complex, the Kd was determined as 24.7 ± 0.9 µM, the ΔG is -6.1 ± 0.1 kcal/mol, the ΔH was found to be 0.4 ± 1 kcal/mol and the “−TΔS” value is -6.5 ± 1 kcal/mol. On RelTt^NTD, the ΔG is -6.12 ± 0.01 kcal/mol, the ΔH came to 1.3 ± 1 kcal/mol and the “−TΔS” value is -7.6 ± 1 kcal/mol. Besides, the equilibrium dissociation constant (Kd) at RelTt^NTD (read-out: Kd) came to 23 µM.

B1: R249A D272A Y329A: RelTt with substitutions R249A, D272A and Y329A (protein)
chain: MVGADLGLWNRLEPALAYLAPEERAKVREAYRFAEEAHRGQLRRSGEPYITHPVAVAEILAGLQMDADTVAAGLLHDTVEDCGVAPEELERRFGPTVRRIVEGETKVSKLYKLANLEGEERRAEDLRQMFIAMAEDVRIIIVKLADRLHNLRTLEHMPPEKQKRIAQETLEIYAPLAHRLGMGQLKWELEDLSFRYLHPEAFASLSARIQATQEARERLIQKAIHLLQETLARDELLQSQLQGFEVTGAPKHLYSIWKKMEREGKTLEQIYALLAVRVILDPKPAPTRESQALREKQVCYHVLGLVHALWQPIPGRVKDYIAVPKPNGAQSLHTTVIALEGLPLEVQIRTREMHRVAEYGIAAHWLYKEGLTDPEEVKRRVSWLKSIQEWQKEFSSSREFVEAVTKDLLGGRVFVFTPKGRIINLPKGATPVDFAYHIHTEVGHHMVGAKVNGRIVPLSYELQNGEIVEILTSKNAHPSKGWLEFAKTRSAKSKIRQYFRAQERQETLERGQHLLERYLKRRGLPKPTDSQLEEAAKRLSLPPSPEELYLALALNRLTPRQVAEKLYPKALLKPEKPKPQVRNEWGIRLEQDLQAPIRLASCCEPMKGDPILGFVTRGRGVTVHRADCPNLRRLLQGPEADRVIGAYWEGVGGKVVVLEVLAQDRAGLLRDVMQVVAEAGKSALGSETRVLGPLARIRLRLAVQDGEEERILQAVQKVSGVKEARWA
For the molecule B1, in the series with full-length RelTt, the “Synthase activity, Substrate: GDP + ATP, RelTt + IC + tRNA^Val” value was 8.8 ± 0.69 and the “Synthase activity, Substrate: GDP + ATP, RelTt + IC” value turned out to be 10.9 ± 3.6.

B2: R249A R277A Y329A: RelTt with substitutions R249A, R277A and Y329A (protein)
chain: B1 chain with A272D, R277A
B2: in the series on full-length RelTt, the “Synthase activity, Substrate: GDP + ATP, RelTt + IC + tRNA^Val” value was 5.4 ± 2.1 and the “Synthase activity, Substrate: GDP + ATP, RelTt + IC” value is reported as 4.5 ± 2.3.
